For one test, the system named is HCT116 cells. Kind of test: In vitro glucose uptake. It counts as cell-based, human. Conditions: HCT116, Latrunculin A 500 nmol/L, 48 hours. As for the experimental part: (§1) SNU-1411, HPAF-II, and HCT116 cells were treated in vitro for 48 hours with RXC004 (100 nmol/L), Latrunculin A (Abcam #ab144290; 500 nmol/L), or DMSO prior to analysis using the Glucose Uptake Glo Assay Kit (Promega #J1341). The ATPlite assay was used to control for cell viability, confirming RXC004 has no effect on proliferation at this 48 hours timepoint.

For a further test, the system named is HPAF-II cells. As to the kind of experiment: In vitro glucose uptake. It counts as cell-based, human. Conditions: Latrunculin A 500 nmol/L, 48 hours. How it is done:
as §1

The test system of the next test is SNU-1411 cells. Kind of test: In vitro glucose uptake. It counts as cell-based, human. Particulars: SNU-1411, Latrunculin A 500 nmol/L, 48 hours. As for the experimental part:
as §1

Test [1] has as its system colorectal cancer xenografts with RSPO3 translocations. Also noted: method as in PMID 26257057. Particulars: cited from earlier work.

Structures are written as SMILES.

Turning to `C/C1=C/C(=O)O[C@@H]2C[C@@H](CC[C@H](C)/C=C\C=C\CC1)O[C@@](O)([C@@H]1CSC(=O)N1)C2` [Latrunculin A, reference compound], the glucose uptake result with HCT116 cells, in the test on HPAF-II cells and with SNU-1411 cells was “blocked glucose uptake” throughout.
For `Cn1c(=O)c2c(ncn2CC(=O)Nc2ccc(-c3ccccc3)nn2)n(C)c1=O` [ETC-159], in test [1], the “duration of tumor regrowth suppression after withdrawal of treatment” value is recorded as “up to 6 weeks”.

The values above are taken from paper PMC10010340, “The Wnt Pathway Inhibitor RXC004 Blocks Tumor Growth and Reverses Immune Evasion in Wnt Ligand–dependent Cancer Models” (Cancer Research Communications, 2022).
